Results published in ChEMBL document CHEMBL4699551, “Bromotryptamine and Imidazole Alkaloids with Anti-inflammatory Activity from the Bryozoan Flustra foliacea” (J Nat Prod, 2020).
The source made the active and inactive calls. No cut-off for these calls is given here.

Key:
Dendritic cell [1] = assay: Antiinflammatory activity in human monocytes-derived dendritic cells assessed as increase in IL-10 secretion at 10 ug/ml after 24 hrs by ELISA method relative to control; assay type: functional
Dendritic cell [2] = assay: Antiinflammatory activity in human monocytes-derived dendritic cells assessed as decrease in IL-12p40 secretion at 10 ug/ml after 24 hrs by ELISA method relative to control; assay type: functional
Dendritic cell [3] = assay: Cytotoxicity against human monocytes-derived dendritic cells assessed as reduction in cell viability after 10 ug/ml after 24 hrs by trypan blue staining based assay; details: dose 10 µg/ml
Dendritic cell [4] = assay: Antiinflammatory activity in human monocytes-derived dendritic cells assessed as decrease in IL-12p40 secretion after 24 hrs by ELISA method relative to control; assay type: functional, cell-based

| SMILES | Activity (Dendritic cell [1]; dose 10.0 µg/ml) | Activity (Dendritic cell [2]; dose 10.0 µg/ml) | Activity (Dendritic cell [2]; dose 10 µg/ml) | Activity (Dendritic cell [3]) | further results |
| --- | --- | --- | --- | --- | --- |
| CC(C)=CC[C@@]12CCN(C)[C@@H]1Nc1c(Br)ccc(O)c12 | inactive | inactive | – | – | – |
| C=CC(C)(C)[C@@]12CCN(C)[C@@H]1N(C(O)C(O)C(C)(C)O)c1cc(Br)ccc12 (some centres not stated) | inactive | inactive | – | – | – |
| CO[C@H](c1[nH]c2cc(Br)ccc2c1CCN(C)C)[C@@H](O)C(C)(C)O | – | – | 45% | Non-Toxic | – |
| CC(C)=CC[C@@]12CCN(C)[C@@H]1N(C(O)C(O)C(C)(C)O)c1cc(Br)ccc12 (some centres not stated) | inactive | inactive | – | – | – |
| CC(C)C(=O)c1c(CCN(C)C)c2ccc(Br)cc2[nH]c1=O | – | – | 45% | Non-Toxic | – |
| CNCC[C@]1(O)C(=O)N(CC=C(C)C)c2cc(Br)ccc21 | inactive | inactive | – | – | – |
| CN(C)CCc1c[nH]c2cc(Br)ccc12.O=C(O)C(F)(F)F | – | – | 45% | Non-Toxic | – |
| C=CC(C)(C)[C@@]12CCN(C)C1=Nc1cc(Br)ccc12 | inactive | inactive | – | – | – |
| C=CC(C)(C)[C@@]12CCN[C@@H]1Nc1cc(Br)ccc12 | inactive | inactive | – | – | – |
| C=CC(C)(C)[C@@]12CCN(C)[C@@H]1N(CC(O)C(C)(C)O)c1cc(Br)ccc12 (some centres not stated) | inactive | inactive | – | – | – |
| C=CC(C)(C)c1c(CCNC)c2ccc(Br)cc2n1C.O=C(O)C(F)(F)F | – | – | 45% | Non-Toxic | – |
| O=C(O)C(F)(F)F.O=Cc1c[nH]c2cc(Br)ccc12 | – | – | 45% | Non-Toxic | – |
| C=CC(C)(C)[C@@]12CCN(C)[C@@H]1N(CC=C(C)C)c1cc(Br)ccc12 | inactive | inactive | – | – | – |
| C=CC(C)(C)C(=O)Nc1cc(Br)ccc1C(=O)O | – | – | 45% | Non-Toxic | – |
| C=CC(C)(C)[C@@]12CCN(C)[C@@H]1N(C(OC)C(O)C(C)(C)O)c1cc(Br)ccc12 (some centres not stated) | inactive | inactive | – | – | – |
| C=CC(C)(C)c1[nH]c2cc(Br)ccc2c1CC[N+]1(C)CCOC1 (configuration not stated) | – | – | 45% | Non-Toxic | – |
| CNCCc1cn(CC=C(C)C)c2cc(Br)ccc12.O=C(O)C(F)(F)F | – | – | 45% | Non-Toxic | IC50 (Dendritic cell [4]): 2.9 µM |
| C=CC(C)(C)[C@@]1(CCNC)C(=O)Nc2cc(Br)ccc21 | inactive | inactive | – | – | – |
| CC(C)=CCN1c2cc(Br)ccc2[C@]2(CC=C(C)C)CCN(C)[C@H]12 | inactive | inactive | – | – | – |
| C/C(=C\C(=O)NCCc1c[nH]cn1)CCCC(C)(C)O | – | – | – | – | Activity (Dendritic cell [1]; dose 10 µg/ml): 19% |
| CC1=C[C@H]2[C@@H]([C@@H](c3[nH]c4cc(Br)ccc4c3CCN(C)C)[C@]34CC[N+](C)(C)[C@]23Nc2cc(Br)ccc24)C(C)(C)C1 (relative stereo) | – | – | – | – | Activity (Dendritic cell [1]; dose 10 µg/ml): 19% |
| C=CC(C)(C)[C@@]12CCN(C)[C@@H]1N(C)c1cc(Br)ccc12 | inactive | inactive | – | – | – |
| CC(C)=CC[C@@]12CCN(C)[C@@H]1N(CC(O)C(C)(C)O)c1cc(Br)ccc12 (some centres not stated) | inactive | inactive | – | – | – |
| CC(C)=CC[C@@]12CCN(C)[C@@H]1Nc1cc(Br)ccc12 | inactive | inactive | – | – | – |
